This is an account of results in patent publication US11512085B2, “Heteroaryl compound having drug activity” (SHANGHAI DUDE MEDICAL TECHNOLOGY CO., LTD, priority 2017, dated 2022).

The target in data set [1] is Btk (Homo sapiens, UniProt Q06187). In words: Determination of Btk enzyme inhibitory activity. The following applies: 2 nM BTK. Type of data set: biochemical. The protocol: Determination of Btk Enzyme Inhibitory Activity
Buffer solution: 50 mM Hepes pH 7.0, 0.1 mM Orthovanadate, 5 mM MgCl2, 0.01% of BSA;
1 mM TK-peptide, […], 50 nM SEB;
Pre-incubation for 15 minutes;
Reaction at 23° C. for 90 minutes;
Color Development Reaction:
Developing buffer solution: 50 mM Hepes pH8.0, 0.8 M KF, 20 mM EDTA, 0.01% BSA;
Reaction at 23° C. for 60 minutes;

For data set [2], the target named is LynA (Homo sapiens, UniProt P07948). The data set is described as follows: Btk selectivity over LynA (same kinase method, Btk replaced). Type of data set: biochemical. The following applies: ratio of IC50 values. The method, then:
(§1) Other kinases (e.g., inhibitory activity of Lck and LynA is determined by replacing the Btk with various kinases and performing operations the same as that in the above method).

Data set [3] deals with Lck (Homo sapiens, UniProt P06239). In words: Btk selectivity over Lck (same kinase method, Btk replaced). Type of data set: biochemical. The following applies: ratio of IC50 values. The method, then: as §1
Chain of Lck (P06239 whole entry): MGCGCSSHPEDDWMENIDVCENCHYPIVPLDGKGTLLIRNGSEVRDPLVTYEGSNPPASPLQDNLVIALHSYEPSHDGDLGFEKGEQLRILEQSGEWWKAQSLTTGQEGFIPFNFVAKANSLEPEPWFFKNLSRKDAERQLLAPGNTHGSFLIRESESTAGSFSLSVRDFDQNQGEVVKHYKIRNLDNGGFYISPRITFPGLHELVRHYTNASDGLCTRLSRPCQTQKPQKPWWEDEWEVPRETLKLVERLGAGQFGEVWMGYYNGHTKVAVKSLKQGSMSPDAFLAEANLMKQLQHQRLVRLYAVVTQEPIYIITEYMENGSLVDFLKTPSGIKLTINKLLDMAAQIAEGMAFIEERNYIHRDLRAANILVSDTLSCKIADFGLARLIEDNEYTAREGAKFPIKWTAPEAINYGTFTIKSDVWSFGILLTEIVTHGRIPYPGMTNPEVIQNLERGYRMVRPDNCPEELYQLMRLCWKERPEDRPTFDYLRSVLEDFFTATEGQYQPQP
A short description of data set [4]: Human liver microsome stability test. Type of data set: in vitro ADME. The conditions noted are these: for Remaining (*NCF = 60 min): HLM 0.5, 60 min, no co-factor; for Remaining (T = 60 min): HLM 0.5, 60 min with NADPH regenerating system; for half-life at 1 µM / microsomal CLint at 1 µM / CLint scaled at 1 µM: human, liver microsomes, pH 7.4; for half-life at 1 µM: HLM 0.5 (0.5 mg protein/mL); for microsomal CLint at 1 µM / CLint scaled at 1 µM: HLM 0.5; for microsomal CLint at 1 µM: read-out: CLint(mic); for CLint scaled at 1 µM: scaled from CLint(mic). The method, then: (§2) Preparation of Buffer Solution:
(§3) 1. 100 mM potassium phosphate buffer solution, pH of 7.4
(§4) Preparation of Test Compound Solution:
(§5) 1. A test compound solution (10 mM, 5 μL) was diluted with a methanol solution (495 μL), and a 100 μM solution was prepared;
(§6) 2. Preparation of a working solution: the above solution (50 μL) was diluted with the potassium phosphate buffer solution (450 μL, 100 mM) so as to obtain diluents (10 μM).
(§7) NADPH Regeneration System (Final Concentration 1 Unit/mL of Isocitrate Dehydrogenase):
(§8) 1. beta-NADP, supplier: sigma Cat. No. N0505
(§9) 3. isocitrate dehydrogenase, supplier: sigma Cat. No. 12002
(§10) Cold acetonitrile containing 100 ng/mL of tolbutamide and 100 ng/mL of labetalol serves as an internal standard
(§11) 1. a 10 μL/well of working solution was added into plates (T0, T5, T10, T20, T30, T60, NCF60) beyond the blank;
(§12) 2. a 80 μL/well of microsome solution was added, and incubation was performed at 37° C. for 10 min;
(§13) 3. a 10 μL of 100 mM phosphate buffer solution was added into each well of an NCF60 plate, the plate was placed in a warm bath at 37° C., and timing started;
(§14) 4. a 10 μL/well of NADPH regeneration system was added after preheating, and a reaction started;
(§15) 5. incubation was performed at 37° C., and timing started
(§16) 6. a 300 μL/well of stop solution was added (4° C., containing 100 ng/mL of tolbutamide and 100 ng/mL of labetalol) to end the reaction;
(§17) 7. the plate was shaken for 10 min;
(§18) 8. centrifugation was performed at 4° C. at a rotation speed of 4000 rpm; and
(§19) 9. sample LC/MS/MS detection was performed.
(§20) Data Analysis Use Equation of First Order Kinetics to Calculate t½ and Clint(Mic): […]
(§21) equation of first order kinetics: […]

Data set [5] in a line: Rat liver microsome stability test. Type of data set: in vitro ADME. The following applies: for Remaining (*NCF = 60 min): RLM 0.5, 60 min, no co-factor; for Remaining (T = 60 min): RLM 0.5, 60 min with NADPH regenerating system; for half-life at 1 µM / microsomal CLint at 1 µM / CLint scaled at 1 µM: rat, liver microsomes, pH 7.4; for half-life at 1 µM: RLM 0.5 (0.5 mg protein/mL); for microsomal CLint at 1 µM / CLint scaled at 1 µM: RLM 0.5; for microsomal CLint at 1 µM: read-out: CLint(mic); for CLint scaled at 1 µM: scaled from CLint(mic). The method, then: as §2, §3, §4, §5, §6, §7, §8, §9, §10, §11, §12, §13, §14, §15, §16, §17, §18, §19, §20, §21
Background: Liver microsomes are a subcellular fraction often used to study metabolism.

For data set [6] the following is noted: People; FDA data; cited from earlier work.

Chain of Btk (Q06187 whole entry): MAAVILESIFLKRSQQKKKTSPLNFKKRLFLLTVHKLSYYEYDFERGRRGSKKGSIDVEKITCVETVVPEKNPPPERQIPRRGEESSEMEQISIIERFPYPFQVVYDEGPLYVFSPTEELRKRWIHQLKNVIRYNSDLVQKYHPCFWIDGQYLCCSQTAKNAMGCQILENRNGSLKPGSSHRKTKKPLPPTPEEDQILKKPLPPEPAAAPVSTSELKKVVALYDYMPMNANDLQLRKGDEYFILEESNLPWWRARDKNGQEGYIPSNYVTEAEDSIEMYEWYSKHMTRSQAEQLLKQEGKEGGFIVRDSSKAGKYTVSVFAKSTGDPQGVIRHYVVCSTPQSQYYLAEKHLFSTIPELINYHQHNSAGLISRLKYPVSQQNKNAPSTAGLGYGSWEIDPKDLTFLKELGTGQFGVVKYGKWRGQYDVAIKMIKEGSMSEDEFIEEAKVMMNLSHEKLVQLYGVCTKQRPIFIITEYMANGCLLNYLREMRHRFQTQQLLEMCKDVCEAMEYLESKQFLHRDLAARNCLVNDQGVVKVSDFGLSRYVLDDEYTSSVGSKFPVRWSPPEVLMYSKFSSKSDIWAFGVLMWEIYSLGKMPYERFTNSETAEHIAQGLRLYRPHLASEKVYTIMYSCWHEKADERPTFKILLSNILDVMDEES
Chain of LynA (P07948 whole entry): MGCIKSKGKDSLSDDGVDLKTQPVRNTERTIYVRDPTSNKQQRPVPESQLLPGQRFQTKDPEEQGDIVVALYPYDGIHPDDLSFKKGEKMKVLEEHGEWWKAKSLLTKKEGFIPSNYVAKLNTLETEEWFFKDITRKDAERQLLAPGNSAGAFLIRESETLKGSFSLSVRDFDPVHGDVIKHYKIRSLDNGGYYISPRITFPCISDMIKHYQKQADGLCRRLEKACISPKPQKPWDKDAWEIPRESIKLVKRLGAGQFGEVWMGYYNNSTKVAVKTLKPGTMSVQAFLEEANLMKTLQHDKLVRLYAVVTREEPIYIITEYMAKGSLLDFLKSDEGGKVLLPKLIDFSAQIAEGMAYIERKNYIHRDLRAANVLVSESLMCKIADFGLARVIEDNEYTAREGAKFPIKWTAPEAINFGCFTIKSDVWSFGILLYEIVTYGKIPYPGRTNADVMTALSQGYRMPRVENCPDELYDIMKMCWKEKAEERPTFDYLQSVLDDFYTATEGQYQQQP

`C=CC(=O)N(C)N1CCC[C@@H](n2c(=O)n(-c3ccc(Oc4ccccc4)cc3)c3c(N)ncnc32)C1` [Embodiment 30] returned an IC50 in data set [1] of 76.8 nM. This counts as double-digit nanomolar.

Consider `C=CC(=O)N(C)N1CCCC(n2nc(-c3ccc(Oc4ccccc4)cc3)c3c(N)ncnc32)C1` (stereo not shown) [Embodiment 8], for which the “LynA[IC50]/Btk[IC50]” value in data set [2] was 62.5. Also, the “Lck[IC50]/Btk[IC50]” value in data set [3] is 139. Moreover, in data set [4], the “Remaining (*NCF = 60 min)” value came to 105.8%, the “Remaining (T = 60 min)” value came to 0.0%, the half-life at 1 µM was determined as 3.7 min and the microsomal CLint at 1 µM is 374 µL/min/mg. In data set [4], this molecule displayed a CLint scaled at 1 µM of 336 mL/min/kg. Moreover, in data set [5], the “Remaining (*NCF = 60 min)” value was found to be 111.2%, the “Remaining (T = 60 min)” value amounted to 0.2%, the half-life at 1 µM worked out at 3.8 min and the microsomal CLint at 1 µM was found to be 366 µL/min/mg. The same molecule gave a CLint scaled at 1 µM in data set [5] of 658 mL/min/kg.

The molecule `C=CC(=O)N1CCCC(n2c(=O)n(-c3ccc(-c4noc(C)n4)cc3)c3c(N)ncnc32)C1` (stereo not shown) [Embodiment 34, 9-(1-allylpropionylpiperidine-3-yl)-6-amino-7-(4-(5-methyl-1,2,4-oxadiazole-3-yl)phenyl)-7,9-dihydro-8H-purine-8-one] displayed an IC50 in data set [1] of 209 nM. This lies in the sub-micromolar range.

As to `C=CC(=O)NN1CCCC(c2nc(-c3ccc(Oc4ccccc4)cc3)c3c(N)nccn23)C1` (stereo not shown) [Embodiment 51, N-(3-(8-amino-1-(4-phenoxyphenyl)imidazo[1,5-a]pyrazine-3-yl)-1-piperidyl) acrylamide], the IC50 in data set [1] is 5.1 nM.

`C=CC(=O)N1CCCC(n2nc(/C=C/c3ccccc3Cl)c3c(N)ncnc32)C1` (stereo not shown) [Embodiment 16, 1-(3-(4-amino-3-(2-chlorophenylvinyl)-1H-pyrazolo[3,4-D]pyrimidine-1-yl)-piperidyl)-2-propylene-1-one]: in data set [1], the IC50 was 16.7 nM.

In data set [1], `C=CC(=O)NN1CCCC(n2c(=O)n(-c3ccc(Oc4ccccc4)cc3)c3c(N)ncnc32)C1` (stereo not shown) [Embodiment 29] displayed an IC50 of more than 1000 nM.

`C=CC(=O)N1CCCC(n2c(=O)n(-c3ccc(-c4noc(C=C)n4)cc3)c3c(N)ncnc32)C1` (stereo not shown) [Embodiment 35, 9-(1-allylpropionylpiperidine-3-yl)-6-amino-7-(4-(5-vinyl-1,2,4-oxadiazole-3-yl)phenyl)-7,9-dihydro-8H-purine-8-one] registered an IC50 in data set [1] of 176 nM.

Take `C=CC(=O)NN1CCC[C@@H](n2c(=O)n(-c3ccc(C(=O)Nc4ccccn4)cc3)c3c(N)ncnc32)C1` [Embodiment 40, 4-(9-(1-acrylamidepiperidine-3-yl)-6-amino-8-oxo-8,9-dihydro-7H-purine-7-yl)-N-(pyridin-2-yl)benzamide]: in data set [1], the IC50 turned out to be 23 nM.

`C=CC(=O)N1CCC[C@@H](n2c(=O)n(-c3ccc(-c4noc(CCCCl)n4)cc3)c3c(N)ncnc32)C1` [Embodiment 36, 9-(1-allylpropionylpiperidine-3-yl)-6-amino-7-(4-(5-(3-chloropropyl)-1,2,4-oxadiazole-3-yl)phenyl)-7,9-dihydro-8H-purine-8-one] displayed an IC50 in data set [1] of more than 1000 nM.

Take `C=CC(=O)N1CCC[C@@H](n2nc(/C=C/c3cccc(Cl)c3)c3c(N)ncnc32)C1` [Embodiment 15, 1-(3-(4-amino-3-(3-chlorophenylvinyl)-1H-pyrazolo[3,4-D]pyrimidine-1-yl)-piperidyl)-2-propylene-1-one]: the midpoint of inhibition in data set [1], the IC50, lay at 6.9 nM.

As to `C=CC(=O)N1CCCC(n2nc(/C=C/c3ccccn3)c3c(N)ncnc32)C1` (stereo not shown) [Embodiment 13, 1-(3-(4-amino-3-(2-2-pyridyl)vinyl-1H-pyrazolo[3,4-D]pyrimidine-1-yl)-piperidyl)-2-propylene-1-one], the “LynA[IC50]/Btk[IC50]” value in data set [2] is recorded as 507. Moreover, the “Lck[IC50]/Btk[IC50]” value in data set [3] is 420. In data set [4], the “Remaining (*NCF = 60 min)” value was determined as 93.1%, the “Remaining (T = 60 min)” value was found to be 14.0%, the half-life at 1 µM stood at 20.5 min and the microsomal CLint at 1 µM came out at 67.6 µL/min/mg. In data set [4], this molecule yielded a CLint scaled at 1 µM of 60.8 mL/min/kg. For the same molecule, in data set [5], the “Remaining (*NCF = 60 min)” value is 94.7%, the “Remaining (T = 60 min)” value worked out at 5.0%, the half-life at 1 µM was 13.7 min and the microsomal CLint at 1 µM came out at 101 µL/min/mg. Also, in data set [5], the CLint scaled at 1 µM came to 182 mL/min/kg. Moreover, 0.46 nM corresponded to half-maximal inhibition in data set [1] (IC50).

In turn, `C=CC(=O)NN1CCC[C@@H](n2nc(-c3ccc(Oc4ccccc4F)cc3)c3c(N)ncnc32)C1` [Embodiment 42] registered an IC50 in data set [1] of 0.9 nM.

In data set [1], `C=CC(=O)N1CCC[C@@H](n2nc(/C=C/c3ccc(Cl)cc3)c3c(N)ncnc32)C1` [Embodiment 14, 1-(3-(4-amino-3-(4-chlorophenylvinyl)-1H-pyrazolo[3,4-D]pyrimidine-1-yl)-piperidyl)-2-propylene-1-one] yielded an IC50 of 5.82 nM.

As for `C=CC(=O)N1CCC[C@@H](n2nc(-c3ccc(-c4noc(C)n4)cc3)c3c(N)ncnc32)C1` [Embodiment 22, 1-(3-(4-amino-3-(4-(5-methyl-1,2,4-oxadiazole-3-yl)phenyl)-1H-pyrazolo[3,4-D]pyrimidine-1-yl)-1-piperidyl)-2-propylene-1-one], half-maximal inhibition in data set [1] (IC50) required 145 nM.

Consider `C=CC(=O)N(C)N1CCC[C@@H](n2nc(-c3ccc(Oc4ccccc4)cc3)c3c(N)ncnc32)C1` [Embodiment 8], for which inhibition in data set [1] was half-maximal at 0.64 nM (IC50).

Take `C=CC(=O)N1CCC[C@@H](n2nc(-c3ccc(Oc4ccccc4)cc3)c3c(N)ncnc32)C1` [Ibrutinib]: the bioavailability in data set [6] is 2.9%.

Turning to `C=CC(=O)N1CCC[C@@H](n2nc(-c3ccc(-c4noc(CCCCl)n4)cc3)c3c(N)ncnc32)C1` [Embodiment 24, 1-(3-(4-amino-3-(4-(5-(3-chloropropyl)-1,2,4-oxadiazole-3-yl)phenyl)-1H-pyrazolo[3,4-D]pyrimidine-1-yl)-1-piperidyl)-2-propylene-1-one], it took 78 nM to reach half-maximal inhibition in data set [1] (IC50).

Broadly, the IC50 is the concentration that gives 50% inhibition. Read a high IC50 as lower potency. One may read the half-life as the time needed for the level to fall by half in the phase considered. In general, CLint scaled refers to the capacity of the preparation to metabolise the compound, expressed as a volume cleared per time. Read a low CLint scaled as slow turnover. As a reminder, the bioavailability is dose-corrected exposure relative to a reference, in per cent.
